From patent US20200297601A1, “COMPOSITION FOR SKIN MOISTURIZATION OR SKIN WHITENING, CONTAINING PENTACYCLIC TRITERPENE CAFFEIC ACID ESTERS” (AMOREPACIFIC CORPORATION, priority 2016, published 2020)

Tested on: filaggrin
Experiment: Immunofluorescent staining and imaging of filaggrin in artificial skin
Assay type: cell-based
Settings: artificial skin (AmoreReskin) surface treated for 4 days, FIG. 3
Experimental: The skin moisturizing effect of Example 1 and Example 4 was evaluated by immunofluorescent staining and imaging of filaggrin which is known as an important skin moisturizing factor.
The surface of artificial skin (AmoreReskin™) was treated with 2 ppm ceramide PC 104, Example 1 and Example 4 for 4 days and then immunofluorescent staining was conducted. The immunofluorescent staining was conducted as follows.
i. Artificial skin is immersed in OCT solution (optimal cutting temperature, Tissue Tek) and stored at −70° C.
ii. The artificial skin is prepared into 10-μm thick sections using a cryotome and fixed on a slide.
iii. Lines are drawn around the artificial skin sections using a PAP pen.
iv. The slide is dried at room temperature for at least 8 hours.
v. The artificial skin sections are washed with PBS and […] in OCT solution.
vi. The artificial skin sections are treated with a blocking solution (1% BSA in PBS) for 30 minutes.
vii. The sections are treated with anti-filaggrin antibody (ab24584, Abcam) for 2 hours.
viii. The sections are treated with Texas Red anti-rabbit antibody (T6391, Life technologies) diluted to 1:200 in a blocking solution for 1 hour.
ix. The sections are stained with DAPI (4′,6-diamidino-2-phenylindole) for 5 minutes.
x. The sections are washed with PBS 3 times.
xi. […]

Substance: 3β,23,28-Trihydroxy-12-oleanene 23-caffeate [Example 1]
- filaggrin protein (immunofluorescence): significantly increased
